The structures appear in SMILES notation. The source made the active and inactive calls.

Assay [1] addresses T1, Sentrin-specific protease 1 (Homo sapiens, UniProt Q9P0U3).
T1 sequence (Q9P0U3 whole entry): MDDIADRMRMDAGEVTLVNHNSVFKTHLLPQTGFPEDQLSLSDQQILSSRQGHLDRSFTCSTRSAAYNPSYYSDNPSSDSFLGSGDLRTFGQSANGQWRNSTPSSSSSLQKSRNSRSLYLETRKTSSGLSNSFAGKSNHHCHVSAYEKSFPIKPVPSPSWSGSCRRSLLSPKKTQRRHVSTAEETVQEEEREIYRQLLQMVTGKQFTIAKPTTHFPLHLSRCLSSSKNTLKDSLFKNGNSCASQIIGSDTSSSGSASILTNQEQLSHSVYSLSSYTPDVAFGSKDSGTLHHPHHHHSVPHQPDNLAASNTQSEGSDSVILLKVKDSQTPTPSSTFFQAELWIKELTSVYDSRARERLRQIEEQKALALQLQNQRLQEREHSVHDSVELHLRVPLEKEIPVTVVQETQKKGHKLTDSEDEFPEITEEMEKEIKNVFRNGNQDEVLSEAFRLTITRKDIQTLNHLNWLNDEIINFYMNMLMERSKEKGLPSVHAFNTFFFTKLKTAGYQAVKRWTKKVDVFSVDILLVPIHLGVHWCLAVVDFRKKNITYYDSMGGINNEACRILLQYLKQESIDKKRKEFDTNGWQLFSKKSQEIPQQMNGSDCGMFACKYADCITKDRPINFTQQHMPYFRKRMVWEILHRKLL
Kind of assay: Dose response confirmation of small molecule inhibitors of the catalytic domain of the SUMO protease, SENP1 in a FRET assay. Format: functional. The settings on record: read-out: IC50_Mean.

For assay [2], the target named is T1, Sentrin-specific protease 1. Kind of assay: potency of human SENP1 inhibitors, dose response, biochemical, kinetic FRET (AID 651697). Format: functional. The settings on record: read-out: IC50_Mean.
Assay [3] relates to Streptococcus sp. 'group A'. Kind of assay: growth inhibition of control SK(-) GAS strain, dose response, counter-screen for streptokinase expression inhibitor project, luminescence, kanamycin, BacTiterGlo, confirmation (AID 1900). In kind it is functional, organism-based. On the technique in general: A counterscreen serves to expose hits that act by an unwanted route or on another target.

Assay [4] is described as follows: AlphaScreen signal interference compounds, dose response, artefact control for ARNT-TACC3 interaction inhibitor project, biochemical, luminescence, cherry-pick (AID 651705).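 Note: AlphaScreen bead proximity signal that flags compounds interfering with the detection technology; potency reflects signal decrease which marks the compound as an assay artifact.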 In kind it is functional. Background: Alpha assays give light when donor and acceptor beads are brought close together.
In assay [5] the test system is Streptococcus. Kind of assay: Group A Streptococcus viability loss, dose response, counter-screen for streptokinase expression inhibitor project, luminescence, BacTiterGlo (AID 1915).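 Note: potency for reduction of bacterial viability or growth.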 In kind it is functional, organism-based.
For assay [6], the system named is INS1. Kind of assay: beta cell apoptosis inhibitors, cytokine rescue, dose response, luminescence, retest (AID 449756).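 Note: cell death triggered by IL-1 beta plus TNF-alpha plus IFN-gamma mixture; protective hits raise ATP signal compared with cytokine alone wells.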 In kind it is functional, cell-based. The settings on record: Rattus norvegicus, INS1.
Assay [7] deals with T2, Streptokinase A (Streptococcus pyogenes serotype M1, UniProt P10520).
T2 sequence (P10520 whole entry): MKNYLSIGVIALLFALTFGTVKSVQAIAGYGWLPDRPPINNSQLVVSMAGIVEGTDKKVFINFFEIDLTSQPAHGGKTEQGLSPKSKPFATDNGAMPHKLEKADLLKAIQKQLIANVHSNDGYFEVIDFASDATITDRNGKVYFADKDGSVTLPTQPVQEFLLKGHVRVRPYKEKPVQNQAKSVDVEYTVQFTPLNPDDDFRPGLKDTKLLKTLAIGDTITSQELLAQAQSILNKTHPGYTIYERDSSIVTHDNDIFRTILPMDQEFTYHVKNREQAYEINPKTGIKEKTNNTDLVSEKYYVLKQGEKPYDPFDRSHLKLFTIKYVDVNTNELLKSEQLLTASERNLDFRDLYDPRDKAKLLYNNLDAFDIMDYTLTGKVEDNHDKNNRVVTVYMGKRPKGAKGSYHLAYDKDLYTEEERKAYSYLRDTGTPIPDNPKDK
Kind of assay: S. pyogenes streptokinase expression inhibitors, potency, dose response, plasminogen activation absorbance, OD405 (AID 1914).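 Note: secreted streptokinase activity via plasminogen activation per viability signal from cell pellet.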 Format: functional, Streptococcus pyogenes M1 GAS.

The nature of assay [8]: intracellular Trypanosoma cruzi inhibitors in host cells – cell-based, plate reader, cherry-pick samples, set 3, dose response (AID 651818).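 Note: compounds incubated with infected cells for about four days.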 In kind it is functional.
In assay [9] the target is T3, Carboxy-terminal domain RNA polymerase II polypeptide A small phosphatase 1 (Homo sapiens, UniProt Q9GZU7).
T3 sequence (Q9GZU7 whole entry): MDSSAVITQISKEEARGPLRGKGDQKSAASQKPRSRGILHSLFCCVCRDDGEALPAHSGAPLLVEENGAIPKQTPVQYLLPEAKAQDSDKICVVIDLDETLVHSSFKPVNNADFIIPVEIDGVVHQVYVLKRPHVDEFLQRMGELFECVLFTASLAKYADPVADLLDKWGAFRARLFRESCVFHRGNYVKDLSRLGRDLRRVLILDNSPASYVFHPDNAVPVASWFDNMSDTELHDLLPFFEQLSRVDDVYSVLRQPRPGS
Kind of assay: inhibitors of CTDSP1, concentration-response testing, biochemical assay, absorbance-based, actives from ultra-high-throughput screening (AID 540297). In kind it is functional.

For assay [10], the target named is T4, Fatty acid synthase (Homo sapiens, UniProt P49327). Kind of assay: FAS thioesterase domain inhibitors, dose response, biochemical, kinetic fluorescence intensity (AID 624326).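 Note: rate of fluorescence rise from hydrolysis of a fluorogenic O-methyl fluorescein ester substrate.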 In kind it is functional.
T4 sequence (P49327 whole entry, the tested form may be a part): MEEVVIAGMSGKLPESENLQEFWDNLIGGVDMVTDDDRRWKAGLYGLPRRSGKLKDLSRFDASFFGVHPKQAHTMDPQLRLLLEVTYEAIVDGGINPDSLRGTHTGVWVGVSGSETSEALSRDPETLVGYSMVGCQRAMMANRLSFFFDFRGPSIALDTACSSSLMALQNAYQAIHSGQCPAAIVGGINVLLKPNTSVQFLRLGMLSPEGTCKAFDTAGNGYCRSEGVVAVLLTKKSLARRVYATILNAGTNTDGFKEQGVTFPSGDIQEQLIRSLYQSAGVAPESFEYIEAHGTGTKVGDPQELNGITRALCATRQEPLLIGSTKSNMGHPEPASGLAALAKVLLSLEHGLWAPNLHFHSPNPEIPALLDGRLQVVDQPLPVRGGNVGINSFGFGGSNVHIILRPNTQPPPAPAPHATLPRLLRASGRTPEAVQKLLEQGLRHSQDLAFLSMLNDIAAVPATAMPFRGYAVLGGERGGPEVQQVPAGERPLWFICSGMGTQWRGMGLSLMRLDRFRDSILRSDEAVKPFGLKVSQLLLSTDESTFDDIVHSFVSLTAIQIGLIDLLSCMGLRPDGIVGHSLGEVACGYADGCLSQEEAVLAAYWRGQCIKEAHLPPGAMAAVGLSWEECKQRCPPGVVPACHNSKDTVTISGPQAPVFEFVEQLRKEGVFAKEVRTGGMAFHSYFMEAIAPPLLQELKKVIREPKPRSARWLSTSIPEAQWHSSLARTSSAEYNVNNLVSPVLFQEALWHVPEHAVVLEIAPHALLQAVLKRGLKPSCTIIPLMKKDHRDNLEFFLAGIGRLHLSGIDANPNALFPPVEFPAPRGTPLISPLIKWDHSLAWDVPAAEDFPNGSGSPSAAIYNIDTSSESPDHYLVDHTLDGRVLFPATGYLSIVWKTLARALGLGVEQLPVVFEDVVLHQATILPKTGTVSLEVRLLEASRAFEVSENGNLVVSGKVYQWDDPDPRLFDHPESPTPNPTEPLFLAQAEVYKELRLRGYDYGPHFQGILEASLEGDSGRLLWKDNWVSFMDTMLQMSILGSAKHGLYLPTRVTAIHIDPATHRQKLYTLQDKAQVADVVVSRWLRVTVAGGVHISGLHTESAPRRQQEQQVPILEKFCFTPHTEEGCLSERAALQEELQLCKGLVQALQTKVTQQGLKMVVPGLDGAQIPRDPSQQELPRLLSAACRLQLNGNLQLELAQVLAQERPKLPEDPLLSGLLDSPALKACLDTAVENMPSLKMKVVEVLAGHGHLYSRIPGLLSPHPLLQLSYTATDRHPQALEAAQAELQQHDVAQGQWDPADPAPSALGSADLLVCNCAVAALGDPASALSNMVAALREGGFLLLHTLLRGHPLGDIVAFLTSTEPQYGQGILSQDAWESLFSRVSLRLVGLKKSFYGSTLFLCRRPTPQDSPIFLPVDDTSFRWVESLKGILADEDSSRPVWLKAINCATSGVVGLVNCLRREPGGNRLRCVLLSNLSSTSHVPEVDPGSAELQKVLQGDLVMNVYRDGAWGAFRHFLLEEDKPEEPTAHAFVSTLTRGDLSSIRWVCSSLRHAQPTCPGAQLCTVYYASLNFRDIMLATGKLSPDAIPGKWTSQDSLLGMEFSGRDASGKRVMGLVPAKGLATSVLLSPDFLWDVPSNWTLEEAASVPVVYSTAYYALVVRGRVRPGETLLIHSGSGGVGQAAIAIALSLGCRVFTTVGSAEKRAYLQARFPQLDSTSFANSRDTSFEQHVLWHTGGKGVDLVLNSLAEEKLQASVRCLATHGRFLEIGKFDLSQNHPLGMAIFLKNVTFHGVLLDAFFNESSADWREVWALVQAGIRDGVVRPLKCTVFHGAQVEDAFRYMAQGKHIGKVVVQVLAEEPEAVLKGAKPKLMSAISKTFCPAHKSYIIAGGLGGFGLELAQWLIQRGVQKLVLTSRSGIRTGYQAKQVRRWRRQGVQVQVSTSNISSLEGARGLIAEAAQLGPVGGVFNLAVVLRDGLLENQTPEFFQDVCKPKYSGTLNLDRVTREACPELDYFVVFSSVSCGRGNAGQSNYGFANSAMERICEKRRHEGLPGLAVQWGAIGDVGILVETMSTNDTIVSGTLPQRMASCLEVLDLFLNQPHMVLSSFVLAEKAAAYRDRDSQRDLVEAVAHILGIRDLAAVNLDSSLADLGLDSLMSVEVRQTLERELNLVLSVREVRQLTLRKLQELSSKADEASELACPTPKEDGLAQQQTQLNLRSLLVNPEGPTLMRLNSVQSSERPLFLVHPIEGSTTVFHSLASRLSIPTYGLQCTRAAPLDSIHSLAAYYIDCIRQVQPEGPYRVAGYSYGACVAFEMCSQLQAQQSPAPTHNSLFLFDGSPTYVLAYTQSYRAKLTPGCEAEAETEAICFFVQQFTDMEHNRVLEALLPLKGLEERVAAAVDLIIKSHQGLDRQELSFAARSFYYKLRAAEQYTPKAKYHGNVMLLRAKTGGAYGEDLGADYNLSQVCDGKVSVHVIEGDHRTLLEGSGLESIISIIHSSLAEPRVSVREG
In assay [11] the target is T4, Fatty acid synthase. Kind of assay: FAS thioesterase domain inhibitors, dose response, biochemical, endpoint fluorescence intensity, uHTS hits (AID 624327).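 Note: fluorescence from hydrolysis of an O-methyl fluorescein acyl ester substrate by the enzyme.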 Format: functional.
In assay [12] the test system is Escherichia coli. Kind of assay: microbe, parasite or virus in culture.
In assay [13] the test system is Vero. Kind of assay: cells. In kind it is functional. The following applies: Chlorocebus sabaeus.
The target of assay [14] is Protein Wnt-3a (Mus musculus, UniProt P27467). Kind of assay: Wnt3a-driven reporter signaling inhibition, dose response, selectivity assay for Gli-SUFU antagonist project, Wnt-LIGHT cells, luminescence (AID 651570).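 Note: Wnt-LIGHT reporter cells stimulated with conditioned medium from Wnt3a-producing cells.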 The settings on record: read-out: IC50_Mean. Format: functional.
Protein Wnt-3a, sequence (P27467 whole entry): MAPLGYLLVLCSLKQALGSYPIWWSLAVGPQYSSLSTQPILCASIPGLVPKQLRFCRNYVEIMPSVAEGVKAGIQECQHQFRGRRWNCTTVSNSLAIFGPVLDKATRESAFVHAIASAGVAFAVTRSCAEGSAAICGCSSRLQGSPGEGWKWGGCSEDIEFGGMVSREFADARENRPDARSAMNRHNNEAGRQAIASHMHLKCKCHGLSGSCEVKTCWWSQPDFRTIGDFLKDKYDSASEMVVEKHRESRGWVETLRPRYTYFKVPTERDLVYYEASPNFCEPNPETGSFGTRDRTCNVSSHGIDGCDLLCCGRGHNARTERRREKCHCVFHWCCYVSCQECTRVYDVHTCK
In assay [15] the target is T5, Short transient receptor potential channel 4 (Mus musculus, UniProt Q9QUQ5).
T5 sequence (Q9QUQ5 whole entry): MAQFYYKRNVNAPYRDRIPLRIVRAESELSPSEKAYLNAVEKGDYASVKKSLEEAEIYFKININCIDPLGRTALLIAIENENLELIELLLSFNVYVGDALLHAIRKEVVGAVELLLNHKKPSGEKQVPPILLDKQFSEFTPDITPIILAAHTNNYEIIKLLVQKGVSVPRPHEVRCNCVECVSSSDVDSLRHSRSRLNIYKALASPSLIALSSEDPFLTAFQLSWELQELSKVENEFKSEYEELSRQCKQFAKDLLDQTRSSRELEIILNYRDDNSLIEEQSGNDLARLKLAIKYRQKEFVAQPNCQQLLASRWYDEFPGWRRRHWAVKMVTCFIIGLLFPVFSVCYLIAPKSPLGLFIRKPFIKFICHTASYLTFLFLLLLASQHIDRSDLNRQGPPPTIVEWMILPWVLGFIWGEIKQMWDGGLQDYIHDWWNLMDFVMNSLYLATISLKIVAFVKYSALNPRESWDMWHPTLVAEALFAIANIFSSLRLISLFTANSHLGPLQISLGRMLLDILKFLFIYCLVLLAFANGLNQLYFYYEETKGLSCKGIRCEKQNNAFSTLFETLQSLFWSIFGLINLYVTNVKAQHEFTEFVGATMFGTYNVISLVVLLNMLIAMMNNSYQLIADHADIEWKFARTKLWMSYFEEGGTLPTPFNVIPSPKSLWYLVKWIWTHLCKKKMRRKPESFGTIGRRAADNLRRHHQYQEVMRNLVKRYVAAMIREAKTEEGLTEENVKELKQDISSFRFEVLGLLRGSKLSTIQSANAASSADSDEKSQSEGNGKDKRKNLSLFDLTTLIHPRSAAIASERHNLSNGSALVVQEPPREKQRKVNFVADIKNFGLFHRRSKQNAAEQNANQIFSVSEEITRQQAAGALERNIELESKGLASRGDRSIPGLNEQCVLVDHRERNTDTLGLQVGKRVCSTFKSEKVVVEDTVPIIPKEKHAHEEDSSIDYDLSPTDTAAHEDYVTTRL
Kind of assay: mouse TRPC4 channel activators, dose response, cell-based, HEK293 TRPC4/mu-opioid, Fluo-4 calcium (AID 434937). In kind it is functional.

Assay [16] addresses Nonstructural protein 1 (Influenza A virus, UniProt Q194T2). Format: functional, Influenza A virus (A/California/07/2009(H1N1)).

Nonstructural protein 1, sequence (Q194T2 whole entry): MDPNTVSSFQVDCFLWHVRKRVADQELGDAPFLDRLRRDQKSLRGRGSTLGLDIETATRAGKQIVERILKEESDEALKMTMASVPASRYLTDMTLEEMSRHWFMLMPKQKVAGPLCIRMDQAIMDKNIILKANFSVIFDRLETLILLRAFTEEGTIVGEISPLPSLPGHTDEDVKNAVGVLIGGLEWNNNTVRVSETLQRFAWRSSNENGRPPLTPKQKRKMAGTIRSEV

Consider `Cc1sc(-c2ccccn2)nc1OC(=O)c1ccc(F)cc1F`, for which the IC50 was 16.6 µM (active) in [1] and 3.57 µM (active) in assay [2].

A word on the EC50: it is the midpoint of the concentration-response curve. As a reminder, the AC50 is the midpoint of the concentration-response curve, whichever way the signal moves. Consider `c1ccc(CNc2nc(-c3ccccn3)nc3ccccc23)cc1`, for which the EC50 in assay [3] was 2.57 µM (active); in assay [5], 6.86 µM (active); in assay [7] it was > 150 µM (not active). Further, the figures for the AC50 in assay [4] and in [6] were 80.1 µM (active) and 2.62 µM (active), respectively.

For `C[C@H]1CN([C@@H](C)CO)C(=O)c2cccc(NC(=O)c3ccncc3)c2O[C@H]1CN(C)C(=O)Nc1ccccc1`, in [8], the AC50 was 2.61 µM (active). In addition, the IC50 in assay [9] was 13.8 µM (active).

Turning to `Cc1ccc(C(=O)N/C(=C\c2cn(S(=O)(=O)N(C)C)c3ccccc23)C(=O)NCCN2CCOCC2)cc1`, the IC50 is 16.5 µM (active) in assay [10] and 12.7 µM (active) in assay [11].

On to `Cc1cccc(NC(=O)CSc2cccc3cccnc23)c1C`, for which the AC50 in assay [4] is 91.7 µM (active).

Take `COc1ccc(/C=C(/NC(=O)c2cccc([N+](=O)[O-])c2)C(=O)O)cc1`: the AC50 in assay [12] is 84.9 µM (active).

For `COc1ccc(C2=Nn3c(nnc3-c3ccccn3)SC2)cc1`, the AC50 in assay [4] was 125 µM (active).

On to `Cc1ccc([N+](=O)[O-])cc1NC(=O)c1ccc(C(C)(C)C)cc1`, for which the IC50 was 4.59 µM (active) in assay [10] and 5.57 µM (active) in assay [11].

As to `C[C@H](CO)N1C[C@H](C)[C@H](CN(C)S(=O)(=O)c2ccccc2)Oc2ccc(NC(=O)Nc3ccc(C(F)(F)F)cc3)cc2CC1=O`, the AC50 in [8] is 4.13 µM (active).

What is called CC50 is the concentration at which the toxic effect on the cells reaches its halfway point. Regarding `COc1ccccc1/C=C1\SC(=S)N(CCC(=O)NCCc2ccc(O)cc2)C1=O`, the CC50 in assay [13] is > 25 µM (active).

Take `C[C@H](CO)N1C[C@H](C)[C@H](CN(C)Cc2ccc(C(=O)Nc3ccccc3N)cc2)Oc2ccc(N(C)C)cc2CC1=O`: in assay [8], the AC50 is 2.03 µM (active).

As to `O=C1C=C(c2cccc(Cl)c2O)C[C@@H](c2ccc(F)cc2)C1`, the results for the IC50 in [1] and in assay [2] were 1.14 µM (active) and 2.61 µM (active), respectively.

Turning to `CCOC(=O)c1c(NC(=O)CN2CCN(C)CC2)sc(C(=O)Nc2ccccc2)c1C`, the CC50 in [13] is > 25 µM (active).

In the case of `C[C@H](CO)N1C[C@H](C)[C@H](CN(C)Cc2ccc(C(F)(F)F)cc2)Oc2c(NC(=O)CCCCCC(=O)Nc3ccccc3N)cccc2C1=O`, the AC50 in assay [8] is 1.92 µM (active).

Take `Cc1ccccc1N(CC(=O)NCc1ccc2c(c1)OCO2)C(=O)C1CSC(=O)C1` (stereo not drawn): the IC50 in assay [10] is 4.48 µM (active); in assay [11], 5.85 µM (active).

`COC(=O)c1ccc(C2CC(=O)Nc3cc(OC)c(OC)cc32)cc1` (stereo not drawn): the AC50 in assay [12] is 32 µM (active).

Take `O=C(NCCc1cccc(Cl)c1)c1ccc(OC2CCN(Cc3ccccn3)CC2)cc1`: the IC50 in [14] is 28.8 µM (inactive). Moreover, the EC50 in assay [15] is 0.944 µM (active).

With `O=[N+]([O-])c1ccc(O)c(/C=N/Nc2nc3ccccc3[nH]2)c1`, the EC50 was 0.716 µM (active) in assay [3] and 1.56 µM (active) in assay [5]. Besides, the IC50 in [16] was 10.3 µM (active). In addition, the values for the AC50 in [12] and in assay [6] were 25.6 µM (active) and 0.559 µM (active), respectively.

(Values after ChEMBL document CHEMBL1201862, “PubChem BioAssay data set” (2004).)
